# Target: GST-Bc1-2 (Homo sapiens, UniProt P10415)
# Assay: Time Resolved-Fluorescence Resonance Energy Transfer (TR-FRET) Bcl-2 binding assay with F-Bak peptide probe
# Conditions: GST-Bcl-2 1 nM, F-Bak probe 100 nM, Tb-anti-GST 1 nM; '<' = below limit of detection; read-out: TR-FRET Bcl-2 Binding Ki
# Sequence of GST-Bc1-2 (P10415 whole entry): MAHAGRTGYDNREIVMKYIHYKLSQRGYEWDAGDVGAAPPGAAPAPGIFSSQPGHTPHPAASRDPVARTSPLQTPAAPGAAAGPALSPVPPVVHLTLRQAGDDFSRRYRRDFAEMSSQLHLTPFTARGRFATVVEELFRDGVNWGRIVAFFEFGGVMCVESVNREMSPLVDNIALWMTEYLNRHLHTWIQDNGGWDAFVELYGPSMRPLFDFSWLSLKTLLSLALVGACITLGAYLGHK
row,SMILES,Ki [nM]
1,"CC1(C)CCC(CN2CCN(c3ccc(C(=O)NS(=O)(=O)c4ccc(NN5CCN(C6COC6)CC5)c([N+](=O)[O-])c4)c(Oc4cnc5[nH]ccc5c4)c3)CC2)=C(c2ccc(Cl)cc2)C1 [Example 236, 4-(4-{[2-(4-chlorophenyl)-4,4-dimethylcyclohex-1-en-1-yl]methyl}piperazin-1-yl)-N-[(3-nitro-4-{[4-(oxetan-3-yl)piperazin-1-yl]amino}phenyl)sulfonyl]-2-(1H-pyrrolo[2,3-b]pyridin-5-yloxy)benzamide]",0.033
2,"CC1(C)CCC(CN2CCN(c3ccc(C(=O)NS(=O)(=O)c4ccc(NN5CCN(C6CCOCC6)CC5)c([N+](=O)[O-])c4)c(Oc4cnc5[nH]ccc5c4)c3)CC2)=C(c2ccc(Cl)cc2)C1 [Example 237, 4-(4-{[2-(4-chlorophenyl)-4,4-dimethylcyclohex-1-en-1-yl]methyl}piperazin-1-yl)-N-[(3-nitro-4-{[4-(tetrahydro-2H-pyran-4-yl)piperazin-1-yl]amino}phenyl)sulfonyl]-2-(1H-pyrrolo[2,3-b]pyridin-5-yloxy)benzamide]",0.024
3,"CC1(C)CCC(CN2CCN(c3ccc(C(=O)NS(=O)(=O)c4ccc(N[C@@H]5CCOC5)c([N+](=O)[O-])c4)c(Oc4cnc5[nH]ccc5c4)c3)CC2)=C(c2ccc(Cl)cc2)C1 [Example 238, 4-(4-{[2-(4-chlorophenyl)-4,4-dimethylcyclohex-1-en-1-yl]methyl}piperazin-1-yl)-N-({3-nitro-4-[(3R)-tetrahydrofuran-3-ylamino]phenyl}sulfonyl)-2-(1H-pyrrolo[2,3-b]pyridin-5-yloxy)benzamide]",< 0.01
4,"CC1(C)CCC(CN2CCN(c3ccc(C(=O)NS(=O)(=O)c4ccc(NCC5CCC(F)(F)CC5)c([N+](=O)[O-])c4)c(Oc4cnc5[nH]ccc5c4)c3)CC2)=C(c2ccc(Cl)cc2)C1 [Example 239, 4-(4-{[2-(4-chlorophenyl)-4,4-dimethylcyclohex-1-en-1-yl]methyl}piperazin-1-yl)-N-[(4-{[(4,4-difluorocyclohexyl)methyl]amino}-3-nitrophenyl)sulfonyl]-2-(1H-pyrrolo[2,3-b]pyridin-5-yloxy)benzamide]",0.026
5,"CC1(C)CCC(CN2CCN(c3ccc(C(=O)NS(=O)(=O)c4ccc(NC5CCN(C(C)(C)C)CC5)c(S(=O)(=O)C(F)(F)F)c4)c(Oc4cnc5[nH]ccc5c4)c3)CC2)=C(c2ccc(Cl)cc2)C1 [Example 240, N-({4-[(1-tert-butylpiperidin-4-yl)amino]-3-[(trifluoromethyl)sulfonyl]phenyl}sulfonyl)-4-(4-{[2-(4-chlorophenyl)-4,4-dimethylcyclohex-1-en-1-yl]methyl}piperazin-1-yl)-2-(1H-pyrrolo[2,3-b]pyridin-5-yloxy)benzamide]",< 0.01
6,"CC1(C)CCC(CN2CCN(c3ccc(C(=O)NS(=O)(=O)c4ccc(NCC5CN(C6COC6)CCO5)c(S(=O)(=O)C(F)(F)F)c4)c(Oc4cnc5[nH]ccc5c4)c3)CC2)=C(c2ccc(Cl)cc2)C1 (stereo not drawn) [Example 241, 4-(4-{[2-(4-chlorophenyl)-4,4-dimethylcyclohex-1-en-1-yl]methyl}piperazin-1-yl)-N-({4-({[4-(oxetan-3-yl)morpholin-2-yl]methyl}amino)-3-[(trifluoromethyl)sulfonyl]phenyl}sulfonyl)-2-(1H-pyrrolo[2,3-b]pyridin-5-yloxy)benzamide]",< 0.01
7,"CC1(C)CCC(CN2CCN(c3ccc(C(=O)NS(=O)(=O)c4cnc(NCC5(F)CCOCC5)c(Cl)c4)c(Oc4cnc5[nH]ccc5c4)c3)CC2)=C(c2ccc(Cl)cc2)C1 [Example 242, N-[(5-chloro-6-{[(4-fluorotetrahydro-2H-pyran-4-yl)methyl]amino}pyridin-3-yl)sulfonyl]-4-(4-{[2-(4-chlorophenyl)-4,4-dimethylcyclohex-1-en-1-yl]methyl}piperazin-1-yl)-2-(1H-pyrrolo[2,3-b]pyridin-5-yloxy)benzamide]",0.057
8,"CC1(C)CCC(CN2CCN(c3ccc(C(=O)NS(=O)(=O)c4cnc(NC5CCN(C6CC6)CC5)c(Cl)c4)c(Oc4cnc5[nH]ccc5c4)c3)CC2)=C(c2ccc(Cl)cc2)C1 [Example 243, N-({5-chloro-6-[(1-cyclopropylpiperidin-4-yl)amino]pyridin-3-yl}sulfonyl)-4-(4-{[2-(4-chlorophenyl)-4,4-dimethylcyclohex-1-en-1-yl]methyl}piperazin-1-yl)-2-(1H-pyrrolo[2,3-b]pyridin-5-yloxy)benzamide]",0.546
9,"CC1(C)CCC(CN2CCN(c3ccc(C(=O)NS(=O)(=O)c4cnc(OC[C@@H]5CN(CC#N)CCO5)c(Cl)c4)c(Oc4cnc5[nH]ccc5c4)c3)CC2)=C(c2ccc(Cl)cc2)C1 [Example 244, N-[(5-chloro-6-{[(2S)-4-(cyanomethyl)morpholin-2-yl]methoxy}pyridin-3-yl)sulfonyl]-4-(4-{[2-(4-chlorophenyl)-4,4-dimethylcyclohex-1-en-1-yl]methyl}piperazin-1-yl)-2-(1H-pyrrolo[2,3-b]pyridin-5-yloxy)benzamide]",0.281
10,"CN(C)CC(=O)N1CCO[C@H](COc2ncc(S(=O)(=O)NC(=O)c3ccc(N4CCN(CC5=C(c6ccc(Cl)cc6)CC(C)(C)CC5)CC4)cc3Oc3cnc4[nH]ccc4c3)cc2Cl)C1 [Example 245, N-[(5-chloro-6-{[(2S)-4-(N,N-dimethylglycyl)morpholin-2-yl]methoxy}pyridin-3-yl)sulfonyl]-4-(4-{[2-(4-chlorophenyl)-4,4-dimethylcyclohex-1-en-1-yl]methyl}piperazin-1-yl)-2-(1H-pyrrolo[2,3-b]pyridin-5-yloxy)benzamide]",0.015
11,"CC1(C)CCC(CN2CCN(c3ccc(C(=O)NS(=O)(=O)c4cnc(OC[C@H]5CN(CC#N)CCO5)c(Cl)c4)c(Oc4cnc5[nH]ccc5c4)c3)CC2)=C(c2ccc(Cl)cc2)C1 [Example 246, N-[(5-chloro-6-{[(2R)-4-(cyanomethyl)morpholin-2-yl]methoxy}pyridin-3-yl)sulfonyl]-4-(4-{[2-(4-chlorophenyl)-4,4-dimethylcyclohex-1-en-1-yl]methyl}piperazin-1-yl)-2-(1H-pyrrolo[2,3-b]pyridin-5-yloxy)benzamide]",0.144
12,"CN(C)CC(=O)N1CCO[C@@H](COc2ncc(S(=O)(=O)NC(=O)c3ccc(N4CCN(CC5=C(c6ccc(Cl)cc6)CC(C)(C)CC5)CC4)cc3Oc3cnc4[nH]ccc4c3)cc2Cl)C1 [Example 247, N-[(5-chloro-6-{[(2R)-4-(N,N-dimethylglycyl)morpholin-2-yl]methoxy}pyridin-3-yl)sulfonyl]-4-(4-{[2-(4-chlorophenyl)-4,4-dimethylcyclohex-1-en-1-yl]methyl}piperazin-1-yl)-2-(1H-pyrrolo[2,3-b]pyridin-5-yloxy)benzamide]",0.019
13,"CC1(C)CCC(CN2CCN(c3ccc(C(=O)NS(=O)(=O)c4cnc(OCC5(F)CCOCC5)c(F)c4)c(Oc4cnc5[nH]ccc5c4)c3)CC2)=C(c2ccc(Cl)cc2)C1 [Example 248, 4-(4-{[2-(4-chlorophenyl)-4,4-dimethylcyclohex-1-en-1-yl]methyl}piperazin-1-yl)-N-({5-fluoro-6-[(4-fluorotetrahydro-2H-pyran-4-yl)methoxy]pyridin-3-yl}sulfonyl)-2-(1H-pyrrolo[2,3-b]pyridin-5-yloxy)benzamide]",0.029
14,"CC1(C)CCC(CN2CCN(c3ccc(C(=O)NS(=O)(=O)c4cnc(OCC(C)(CO)CO)c(Cl)c4)c(Oc4cnc5[nH]ccc5c4)c3)CC2)=C(c2ccc(Cl)cc2)C1 [Example 250, N-({5-chloro-6-[3-hydroxy-2-(hydroxymethyl)-2-methylpropoxy]pyridin-3-yl}sulfonyl)-4-(4-{[2-(4-chlorophenyl)-4,4-dimethylcyclohex-1-en-1-yl]methyl}piperazin-1-yl)-2-(1H-pyrrolo[2,3-b]pyridin-5-yloxy)benzamide]",0.412
15,"CC1(C)CCC(CN2CCN(c3ccc(C(=O)NS(=O)(=O)c4ccc(OCC5(F)CCOCC5)nc4)c(Oc4cnc5[nH]ccc5c4)c3)CC2)=C(c2ccc(Cl)cc2)C1 [Example 251, 4-(4-{[2-(4-chlorophenyl)-4,4-dimethylcyclohex-1-en-1-yl]methyl}piperazin-1-yl)-N-({6-[(4-fluorotetrahydro-2H-pyran-4-yl)methoxy]pyridin-3-yl}sulfonyl)-2-(1H-pyrrolo[2,3-b]pyridin-5-yloxy)benzamide]",0.571
16,"CC1(C)CCC(CN2CCN(c3ccc(C(=O)NS(=O)(=O)c4ccc(NCC5CN(C(CF)CF)CCO5)c([N+](=O)[O-])c4)c(Oc4cnc5[nH]ccc5c4)c3)CC2)=C(c2ccc(Cl)cc2)C1 (stereo not drawn) [Example 252, 4-(4-{[2-(4-chlorophenyl)-4,4-dimethylcyclohex-1-en-1-yl]methyl}piperazin-1-yl)-N-{[4-({[4-(1,3-difluoropropan-2-yl)morpholin-2-yl]methyl}amino)-3-nitrophenyl]sulfonyl}-2-(1H-pyrrolo[2,3-b]pyridin-5-yloxy)benzamide]",< 0.01
17,"CC1(C)CCC(CN2CCN(c3ccc(C(=O)NS(=O)(=O)c4cnc(OCC5CCN(CC#N)CC5)c(Cl)c4)c(Oc4cnc5[nH]ccc5c4)c3)CC2)=C(c2ccc(Cl)cc2)C1 [Example 253, N-[(5-chloro-6-{[1-(cyanomethyl)piperidin-4-yl]methoxy}pyridin-3-yl)sulfonyl]-4-(4-{[2-(4-chlorophenyl)-4,4-dimethylcyclohex-1-en-1-yl]methyl}piperazin-1-yl)-2-(1H-pyrrolo[2,3-b]pyridin-5-yloxy)benzamide]",0.052
18,"COCCOCCN1CC[C@@H](Nc2ccc(S(=O)(=O)NC(=O)c3ccc(N4CCN(CC5=C(c6ccc(Cl)cc6)CC(C)(C)CC5)CC4)cc3Oc3cnc4[nH]ccc4c3)cc2[N+](=O)[O-])C1 [Example 254, 4-(4-{[2-(4-chlorophenyl)-4,4-dimethylcyclohex-1-en-1-yl]methyl}piperazin-1-yl)-N-{[4-({(3R)-1-[2-(2-methoxyethoxy)ethyl]pyrrolidin-3-yl}amino)-3-nitrophenyl]sulfonyl}-2-(1H-pyrrolo[2,3-b]pyridin-5-yloxy)benzamide]",< 0.01

# Source: patent US8580794B2 (AbbVie Inc., priority 2009, dated 2013)
